Laboratory results: patent US20240208905A1, “ABIRATERONE DERIVATIVE, PREPARATION AND APPLICATION THEREOF” (GUANGDONG ZHONGKE MEDICINE R&D LTD., priority 2021, published 2024)
Marks after values point to notes of the source that are not given here.

Columns and labels:
[1] = test system: experimental rabbit ear acne; experiment: Pharmacodynamics evaluation of acne: coal tar rabbit ear acne model, HE pathology; type: in vivo, Japanese big-ear white rabbits; conditions: 0.01% ointment, 1 g per animal, once a day, two weeks, 10 rabbits per group; for Degree of keratinization: number of rabbits graded + / Degree of keratinization: number of rabbits graded ++ / Degree of keratinization: number of rabbits graded +++ / Degree of keratinization: number of rabbits graded −: hair follicle keratinization
Text: There are 140 male healthy Japanese big-ear white rabbits, weighing 2.0-2.5 kg. After one week of adaptive rearing, 10 rabbits were randomly selected according to their body weights as the normal control group, and the remaining 130 rabbits were coated with coal tar once a day in the area of 2×2 cm2 at 2 cm outside the opening of ear canal, with a thickness of about 0.5 mm (Before coating, the coal tar was heated to melt in a water bath, and the last coal tar shell was removed before each application; the rabbits in normal control group were coated with olive oil by the same method as before). After 3 weeks for modeling, according to the degree of skin lesion, 130 rabbits were randomly divided into 13 groups which is model control group, Example 1 compound (1 group), Example 2 compound (2 groups), Example 3 compound (3 groups), Example 4 (4 groups), Example 5 (5 groups), Example 6 (6 groups), Example 7 (7 groups), Example 8 (8 groups), Example 9 (9 groups), Example 10 (10 groups), Example 11 (11 groups), Example 12 (12 groups), Example 13 (13 groups), and each group had 10 rabbits. After grouping, each dose group were continued to be coated coal tar in the morning, and after the coal tar was removed in the afternoon, apply the test drug or control drug (both 0.01%/10 g ointment, apply 1 g ointment per animal) on the lesion, once a day, for two consecutive weeks (the model control group and the normal control group were coated with the same amount of matrix). 24 hours after the last administration, the animals were sacrificed by air embolism, and the skin (full thickness) of the ear where the administration was administered was taken, fixed with 4% paraformaldehyde solution, stained with HE, and routinely observed for pathology.1.

[2] = test system: human prostate cancer cell VCaP nude mouse transplanted tumor model; experiment: Prostate tumor pharmacodynamics experiment: VCaP nude mouse transplanted tumor model; type: in vivo, BALB/c nude mice; conditions: 0.5 mmol·kg−1 i.g. QD; for inhibition in vivo at 500 µmol/kg: Mus musculus, VCaP, po, 600 h, read-out: Growth Inhibition rate (GI); for Tumor volume, day 25: * P<0.05, ** P<0.01 vs solvent control
Experimental: Male BALB/c nude mice (number: 90; age: 6-7 weeks) purchased from Beijing Vital River Laboratory Animal Technology Co., Ltd., were raised in the SPF animal room of Suzhou Shengsu New Drug Development Co., Ltd. at a temperature of 20˜25° C. and a relative humidity 40%˜70%, and bright and dark illumination for 12 hours respectively; these mice were allowed to drink and eat freely. After normal feeding for about 6 days, mice with good physical signs can be selected for this experiment after veterinary inspection. Before grouping, animals were identified at their base of tail using marking pens. After grouping, each animal was identified by ear clipping.
Human prostate cancer cells VCaP were obtained from the Shanghai Cell Bank of the Chinese Academy of Sciences (CAS, cryopreserved in liquid nitrogen in our laboratory).
Under a culture condition of 5% CO2 and 37° C., VCaP cells were routinely cultured in DMEM medium containing 10% fetal bovine serum. Digested with 0.25% trypsin and passaged, VCaP cells were passaged 2-3 times per week based on cell growth, with a passage ratio of 1:3 to 1:5.
The VCaP cells in logarithmic growth phase were collected, counted, and resuspended in 50% DMEM basal medium and 50% Matrigel Matrix, and the cell concentration was adjust to 5×10^7 cells/mL; the cells was placed in an ice box; Cell suspension was aspirated with a 1 ml syringe, and injected subcutaneously to the anterior right armpit of nude mice. Each animal was inoculated with 200 μL (1×10^7 cells/mouse), and a VCaP transplant tumor model in nude mice was established. Regularly observe the status of mice, measure the diameter of the tumor with an electronic vernier caliper, input the data into Excel spreadsheets, calculate the tumor volume, and monitor its growth. When the tumor volume reached 100-300 mm3, 60 mice with good health and similar tumor volume were selected, and divided into 10 groups (n=6) based on the tumor volume using random block method, while ensuring that the average body weight of each group remained consistent as much as possible. The day of grouping was taken as the first day of the experiment (D1). The tumor diameters were measured twice a week after the initiation of the experiment, the tumor volumes were calculated, and the body weights of the animals were weighed and recorded at the same time.
Preparation of DMSO&PEG400&PG (v:v:v, 10:60:30): appropriate volumes of DMSO, PEG400 and PG were drawed respectively, and mixed well. The ratio of DMSO, PEG400 and PG in the mixture is 10:60:30 (v:v:v), and this mixture is used as a blank solvent and stored at room temperature.
Appropriate amount of the test compound was weighed and added into a glass bottle, appropriate volume of solvent DMSO was added, be treated with vortex ultrasonication, then appropriate volumes of PEG400 and PG were added in turn, be vortex mixed to obtain a dosing formulation with a final concentration of 0.05M. The dosing formulation was stored in refrigerator at 2-8° C. after subpackaging, and was stirred evenly with vortex before each administration. The dosing formulation was prepared every 7 days, and was subpackaged and stored in refrigerator at 4° C.
Appropriate amount of ZONK1901-10 was weighed and added into a glass bottle, appropriate volume of corn oil, was added, be treated with vortex ultrasonication evenly, a dosing formulation with a final concentration of 19.58 mg·mL-1 (0.05 M) was obtained.

[3] = Pharmacokinetic experiment after intragastric administration in mice (LC-MS/MS of ZONK1901-1 and ZONK1901-2)
Experimental: To study the pharmacokinetic properties after intragastric administration in mice.
Each mouse was collected at 2-3 discrete points in time.
An LC-MS/MS analysis method for determining the concentrations of ZONK 1901-1 and ZONK1901-2 in mouse whole blood was established. At the same time, the obtained plasma concentration data was calculated by using the pharmacokinetic processing software Pharsight Phoenix WinNonlin8.0 non-compartmental model to calculate relevant pharmacokinetic parameters.

[4] = test system: tumor model mice inoculated with Vcap (human prostate cancer cells); conditions: intraperitoneal injections, cited from earlier work
[5] = metabolite ZONK1901-1 (M1) in mouse blood after intragastric administration of the group's compound
[6] = metabolite ZONK1901-2 (M2) in mouse blood after intragastric administration of the group's compound

SMILES	degree of inflammatory cell infiltration: number of rabbits graded + [1]	degree of inflammatory cell infiltration: number of rabbits graded ++ [1]	degree of inflammatory cell infiltration: number of rabbits graded +++ [1]	degree of inflammatory cell infiltration: number of rabbits graded − [1]	Degree of keratinization: number of rabbits graded + [1]	Degree of keratinization: number of rabbits graded ++ [1]	Degree of keratinization: number of rabbits graded +++ [1]	Degree of keratinization: number of rabbits graded − [1]	inhibition in vivo at 500 µmol/kg ([2]; day 25, vs solvent control) [%]	Tumor volume, day 25 ([2]; day 25, n=6)	other results
C[C@]12CCC(=NOC(=O)N3CCC(N4CCCCC4)CC3)C=C1CC[C@H]1[C@@H]2CC[C@]2(C)C(c3cccnc3)=CC[C@@H]12 [Example 4, (8S,9S,10R,13S,14S)-10,13-Dimethyl-17-(pyridin-3-yl) -6,7,8,9,10,11,12,13,14,15-decahydro-1H-cyclopentene[a]phenanthrenyl-3(2H)-one O-([1,4′-bipiperidine]-1′-carbonyl)oxime]	5	3	2	0	7	3	0	1	84.2	377 ± 37 ** mm3	
Cc1ccccc1C(=O)ON=C1C=C2CC[C@H]3[C@H](CC[C@]4(C)C(c5cccnc5)=CC[C@@H]34)[C@@]2(C)CC1 [Example 5, (8S,9S,10R,13S,14S)-10,13-Dimethyl-17-(pyridin-3-yl) -6,7,8,9,10,11,12,13,14,15-decahydro-1H-cyclopenta[a]phenanthrenyl-3(2H)-one O-(2-methylbenzoyl)oxime]	6	3	1	0	6	4	0	0	85.2	410 ± 44 ** mm3	
CNCCC(=O)ON=C1C=C2CC[C@H]3[C@H](CC[C@]4(C)C(c5cccnc5)=CC[C@@H]34)[C@@]2(C)CC1 [Example 6, (8S,9S,10R,13S,14S)-10,13-Dimethyl-17-(pyridin-3-yl) -6,7,8,9,10,11,12,13,14,15-decahydro-1H-cyclopenta[a]phenanthrenyl-3(2H)-one O-(3-(methylamino)propionyl)oxime]	6	3	1	0	5	5	0	0		405 ± 15 * mm3	Tumor volume, Day 1 ([2]; Day 1 (day of grouping, start of dosing), n=6): 227 ± 21^ mm3; Growth Inhibition rate (GI) ([2]; day 25, vs solvent control): 80.7% **; AUC0-inf [3, 5]: 2396 nM·h; AUC0-t [3, 5]: 2103 nM·h; Cmax [3, 5]: 0.679 µM; Tmax [3, 5]: 2.00 h; t1/2 [3, 5]: 2.73 h; AUC0-inf [3, 6]: 2287 nM·h; AUC0-t [3, 6]: 2237 nM·h; Cmax [3, 6]: 0.421 µM; Tmax [3, 6]: 2.00 h; t1/2 [3, 6]: 3.17 h
CC(=O)O[C@H]1CC[C@@]2(C)C(=CC[C@@H]3[C@@H]2CC[C@]2(C)C(c4cccnc4)=CC[C@@H]32)C1 [ZONK1901-10, abiraterone acetate, reference compound]									44.1	765 ± 46 * mm3	Autopsy finding on absorption of the drug [4]: some of the drugs were not absorbed; Adverse findings in tumor model mice ([4]; some mice): developed abdominal distension and died; M2 (ZONK1901-2) in the metabolites ([3]; intragastric administration): not detected
